Here are results for two substances from patent US12116636B2, “Methods for evaluating tumor cell spheroids using 3D microfluidic cell culture device” (Dana-Farber Cancer Institute, Inc., priority 2017, dated 2024).

In this test the test system is PDOTS. Kind of test: Bead-based cytokine profiling of PDOTS conditioned media. The test is classed as cell-based, human. The procedure:
Fresh tumor specimens (murine and human patients) were received in media (DMEM) on ice and minced in a 10 cm dish (on ice) using sterile forceps and scalpel. Minced tumor was resuspended in DMEM (4.5 mM glucose, […] sodium pyruvate, 1:100 penicillin-streptomycin) (Coming CellGro, Manassas, VA)+10% FBS (Gemini Bio-Products, West Sacramento, CA), 100 U/mL collagenase type IV (Life Technologies, Carlsbad, CA), and 15 mM HEPES (Life Technologies, Carlsbad, CA), except for CT26 tumors that were prepared in RPMI. Samples were pelleted and resuspended in 10-20 mL media. Red blood cells were removed from visibly bloody samples using RBC Lysis Buffer (Boston Bio-Products, Ashland, MA). […]
Two multiplex assays were performed utilizing a bead-based immunoassay approach, the Bio-Plex Pro™ Human Cytokine 40-plex Assay (Cat #171AK99MR2) and Bio-Plex Pro™ Mouse Cytokine Panel 1, 23-plex (Cat #M60009RDPD) on a Bio-plex 200 system (Cat #171000201). […] Fold changes relative to the MDOT/PDOT control were calculated and plotted as log 2FC. Lower and upper limits of quantitation (LLOQ/ULOQ) were imputed from standard curves for cytokines above or below detection. […]

As to pembrolizumab [PD-1 blockade], the “PDOTS samples with upregulation of CCL19 and CXCL13” value (Day 3 cytokine release, n=28) is on record as 23/28. As to ipilimumab [CTLA-4 blockade], the “CCL19/CXCL13 induction in PDOTS” value (Day 3, relative to untreated control) was “comparatively minimal”.
